Results on two molecules are retold here after ChEMBL document CHEMBL4385611, “Difluoromethylene at the γ-Lactam α-Position Improves 11-Deoxy-8-aza-PGE1 Series EP4 Receptor Binding and Activity: 11-Deoxy-10,10-difluoro-8-aza-PGE1 Analog (KMN-159) as a Potent EP4 Agonist” (J Med Chem, 2019).

Data set [1] is described as follows: n-Octanol-PBS buffer partition coefficient, log D of the compound at 100 uM at pH 7.4 after 1 hr by LC-MS/MS analysis. In kind it is physicochemical.
A short description of data set [2]: Apparent permeability across basolateral to apical side in human Caco2 cells assessed as drug recovery at 5 uM after 120 mins by LC-MS/MS analysis. It is filed as ADME, cell-based. The conditions noted are these: Caco-2, read-out: Drug recovery. Background: Caco-2 cells form a polarised layer with tight junctions and transporters.
Data set [3] addresses T1, Cytochrome P450 1A (Homo sapiens, UniProt P04798+P05177).
T1 sequence (P04798 whole entry): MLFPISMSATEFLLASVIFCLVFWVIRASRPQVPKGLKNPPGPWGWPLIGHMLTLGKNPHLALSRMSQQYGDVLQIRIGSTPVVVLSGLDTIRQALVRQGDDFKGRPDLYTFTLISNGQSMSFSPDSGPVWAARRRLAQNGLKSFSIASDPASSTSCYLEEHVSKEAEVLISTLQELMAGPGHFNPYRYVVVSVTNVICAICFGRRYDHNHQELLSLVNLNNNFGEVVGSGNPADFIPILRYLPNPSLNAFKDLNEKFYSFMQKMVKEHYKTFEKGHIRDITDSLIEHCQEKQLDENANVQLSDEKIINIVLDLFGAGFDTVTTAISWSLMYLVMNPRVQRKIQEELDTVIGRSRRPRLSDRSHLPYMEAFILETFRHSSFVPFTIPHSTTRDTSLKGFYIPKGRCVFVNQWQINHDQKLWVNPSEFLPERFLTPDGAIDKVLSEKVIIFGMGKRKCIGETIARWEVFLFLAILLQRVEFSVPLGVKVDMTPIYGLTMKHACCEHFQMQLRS
T1 sequence (P05177 whole entry): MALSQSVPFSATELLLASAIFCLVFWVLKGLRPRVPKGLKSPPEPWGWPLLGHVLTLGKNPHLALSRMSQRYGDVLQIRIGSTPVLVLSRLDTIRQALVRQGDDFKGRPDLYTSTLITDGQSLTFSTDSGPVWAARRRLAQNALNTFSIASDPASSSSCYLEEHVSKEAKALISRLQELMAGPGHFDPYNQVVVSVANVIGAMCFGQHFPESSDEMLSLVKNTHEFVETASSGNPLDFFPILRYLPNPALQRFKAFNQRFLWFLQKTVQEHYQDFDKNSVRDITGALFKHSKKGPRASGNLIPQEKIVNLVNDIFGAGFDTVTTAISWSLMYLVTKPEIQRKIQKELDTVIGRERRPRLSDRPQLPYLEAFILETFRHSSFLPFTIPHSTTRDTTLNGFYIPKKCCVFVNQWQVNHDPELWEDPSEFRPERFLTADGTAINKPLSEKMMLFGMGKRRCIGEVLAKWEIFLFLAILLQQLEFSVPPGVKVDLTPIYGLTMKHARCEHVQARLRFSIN
The data set is described as follows: Inhibition of CYP1A in human liver microsomes using phenacetin as substrate at 10 uM after 10 mins by HPLC-MS/MS analysis. It is filed as ADME. (In general: Liver microsomes are vesicles of endoplasmic reticulum, rich in cytochrome P450 enzymes.)

The nature of data set [4]: Half-life in human blood at 1 uM by HPLC-MS/MS analysis. It is filed as ADME, tissue-based.
For data set [5], the target named is T2, Cytochrome P450 2B6 (Homo sapiens, UniProt P20813).
T2 sequence (P20813 whole entry): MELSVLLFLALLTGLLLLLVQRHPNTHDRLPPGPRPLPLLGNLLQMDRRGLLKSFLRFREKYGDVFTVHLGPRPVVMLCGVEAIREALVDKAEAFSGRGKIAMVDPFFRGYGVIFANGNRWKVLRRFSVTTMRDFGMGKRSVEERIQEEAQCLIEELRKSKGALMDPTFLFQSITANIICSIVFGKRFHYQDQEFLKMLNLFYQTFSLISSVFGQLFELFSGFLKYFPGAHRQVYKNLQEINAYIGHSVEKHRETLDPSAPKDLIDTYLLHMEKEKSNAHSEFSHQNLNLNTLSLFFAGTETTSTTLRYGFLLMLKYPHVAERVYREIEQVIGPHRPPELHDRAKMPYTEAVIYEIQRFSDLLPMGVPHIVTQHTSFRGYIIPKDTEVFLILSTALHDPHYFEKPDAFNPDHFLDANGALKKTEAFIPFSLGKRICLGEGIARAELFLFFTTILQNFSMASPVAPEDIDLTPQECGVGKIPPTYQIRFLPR
The data set is described as follows: Inhibition of CYP2B6 in human liver microsomes using bupropion as substrate at 10 uM after 10 mins by HPLC-MS/MS analysis. It is filed as ADME.

For data set [6], the target named is T3, Prostaglandin E2 receptor EP4 subtype (Homo sapiens, UniProt P35408). Put plainly: Displacement of [3H]PGE2 from human recombinant EP4 receptor expressed in HEK293 cell membranes after 120 mins by liquid scintillation counting method. Background: Loss of bound radioactivity is the signal in a displacement assay; it reports binding, not function.
Data set [7] can be described thus: Mutagenicity in Salmonella typhimurium TA1537 after 96 hrs in presence of rat liver S9 fraction by Ames test. It is filed as toxicity, subcellular. The conditions noted are these: salmonella enterica subsp. enterica serovar typhimurium, s9, 96 h.
Data set [8] has as its target T4, Prostaglandin E2 receptor EP2 subtype (Homo sapiens, UniProt P43116). The data set is described as follows: Agonist activity at human EP2 receptor expressed in HEK293T/17 cells assessed as increase in intracellular cAMP level at 10 uM incubated for 30 mins by ELISA relative to control. It is filed as functional, cell-based.
The test system of data set [9] is CHO-K1. Put plainly: Clastogenic activity in CHOK1 cells after 4 hrs in absence of S9 fraction by micronucleus assay. It is filed as toxicity, cell-based, Cricetulus griseus. The conditions noted are these: chinese hamster, cho-k1, 4 h.
The target of data set [10] is T3, Prostaglandin E2 receptor EP4 subtype. Put plainly: Agonist activity at human EP4 receptor expressed in HEK293T/17 cells assessed as increase in GalphaS-mediated CREB activation measured after 6 to 24 hrs by SEAP reporter gene-based chemiluminescence assay. It is filed as functional, cell-based.
A short description of data set [11]: Mutagenicity in Salmonella typhimurium TA1535 after 96 hrs in presence of rat liver S9 fraction by Ames test. In kind it is toxicity, subcellular. As to conditions: salmonella enterica subsp. enterica serovar typhimurium, s9, 96 h.
Data set [12] is described as follows: Mutagenicity in Salmonella typhimurium TA1535 after 96 hrs in absence of rat liver S9 fraction by Ames test. The conditions noted are these: salmonella enterica subsp. enterica serovar typhimurium, s9, 96 h. It is filed as toxicity.
The nature of data set [13]: Intrinsic clearance in human hepatocytes at 0.1 uM by HPLC-MS/MS analysis. In kind it is ADME, cell-based, Hepatocyte.
For data set [14], the system named is CHO-K1. The data set is described as follows: Clastogenic activity in CHOK1 cells after 4 hrs in presence of S9 fraction by micronucleus assay. In kind it is toxicity, cell-based, Cricetulus griseus. As to conditions: chinese hamster, s9, 4 h.
A short description of data set [15]: Mutagenicity in Salmonella typhimurium TA100 after 96 hrs in presence of rat liver S9 fraction by Ames test. In kind it is toxicity, subcellular. The conditions noted are these: salmonella enterica subsp. enterica serovar typhimurium, s9, 96 h.
The target of data set [16] is T4, Prostaglandin E2 receptor EP2 subtype. The data set is described as follows: Agonist activity at human EP2 receptor expressed in HEK293T/17 cells assessed as increase in GalphaS-mediated CREB activation measured after 6 to 24 hrs by SEAP reporter gene-based chemiluminescence assay. It is filed as functional, cell-based.
Data set [17] concerns the target T3, Prostaglandin E2 receptor EP4 subtype. Put plainly: Agonist activity at human EP4 receptor expressed in HEK293T/17 cells assessed as increase in intracellular cAMP level incubated for 30 mins by ELISA. It is filed as functional, cell-based.
The nature of data set [18]: Mutagenicity in Salmonella typhimurium TA98 after 96 hrs in absence of rat liver S9 fraction by Ames test. It is filed as toxicity. As to conditions: salmonella enterica subsp. enterica serovar typhimurium, s9, 96 h.
The nature of data set [19]: Genotoxicity in Salmonella typhimurium TA1535 at 0.6 to 100 uM after 96 hrs by photometry analysis. In kind it is toxicity. As to conditions: salmonella enterica subsp. enterica serovar typhimurium.
Data set [20] can be described thus: Protein binding in human plasma at 10 uM after 4 hrs by HPLC-MS/MS-based equilibrium dialysis method. It is filed as ADME, cell-free. The conditions noted are these: read-out: PPB (converted).

pEC50, pKi: −log10 of the molar value.

T3 sequence (P35408 whole entry): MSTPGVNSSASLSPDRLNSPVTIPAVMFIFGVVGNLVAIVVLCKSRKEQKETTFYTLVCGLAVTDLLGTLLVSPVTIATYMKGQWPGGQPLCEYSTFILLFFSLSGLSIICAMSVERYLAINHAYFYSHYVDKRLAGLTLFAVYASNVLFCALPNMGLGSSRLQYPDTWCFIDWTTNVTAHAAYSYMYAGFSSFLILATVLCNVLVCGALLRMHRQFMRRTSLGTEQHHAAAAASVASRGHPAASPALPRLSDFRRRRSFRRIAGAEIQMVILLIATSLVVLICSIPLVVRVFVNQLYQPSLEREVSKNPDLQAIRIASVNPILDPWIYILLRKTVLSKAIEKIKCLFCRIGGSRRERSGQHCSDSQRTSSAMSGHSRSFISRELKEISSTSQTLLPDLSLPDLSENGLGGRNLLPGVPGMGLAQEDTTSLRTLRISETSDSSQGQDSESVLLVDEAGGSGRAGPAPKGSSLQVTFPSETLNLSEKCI
T4 sequence (P43116 whole entry): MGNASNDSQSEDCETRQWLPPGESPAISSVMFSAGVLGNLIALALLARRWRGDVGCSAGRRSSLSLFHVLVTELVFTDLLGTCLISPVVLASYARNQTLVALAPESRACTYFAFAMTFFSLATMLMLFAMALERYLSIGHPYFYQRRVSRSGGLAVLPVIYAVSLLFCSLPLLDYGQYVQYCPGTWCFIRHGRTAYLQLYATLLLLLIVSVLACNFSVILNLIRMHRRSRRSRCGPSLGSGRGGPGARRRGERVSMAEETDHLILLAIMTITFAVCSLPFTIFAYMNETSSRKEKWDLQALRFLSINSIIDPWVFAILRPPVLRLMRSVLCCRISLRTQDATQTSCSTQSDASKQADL

Broadly, the logD is lipophilicity at a set pH, counting ionised and neutral species. Low values mean a more hydrophilic compound, high ones a more lipophilic compound. As a reminder, the half-life is the time needed for the level to fall by half in the phase considered. Low readings indicate rapid decline, high ones slow decline. As a reminder, the pKi is the negative decadic logarithm of the Ki, by convention in mol/L. For orientation: pEC50 means the negative decadic logarithm of the EC50, by convention in mol/L. Turning to `CCC#CC[C@H](C)[C@H](O)/C=C/[C@H]1CCC(=O)N1CCCCCCC(=O)O`, in [1], the log distribution coefficient (logD) at 1 h, 100 µM is -0.07. In addition, the recovery at 2 h, 5 µM in data set [2] worked out at 97%. Further, the “inhibition (INH)” value in data set [3] and in data set [5] was “Not Active” each time. The same molecule registered a half-life at 1 µM in [4] greater than 2 h. Moreover, the negative-log Ki (pKi) in data set [6] was 8.63. The Activity entry in [7] is “Non-Toxic”; in data set [8], less than 50%; in data set [9], “Non-Toxic”; in [11], “Non-Toxic”; in [12], “Non-Toxic”; in data set [14] it was “Non-Toxic”. Besides, the Activity result in [15], in [18] and in data set [19] was “Non-Toxic” throughout. The negative logarithm of the EC50 (pEC50) is 9.32 in data set [10], less than 5.00 in data set [16] and 7.70 in data set [17]. In data set [13], this molecule came in with a CLH of less than 8.2 µL/min/10^6 cells. Also, the fraction unbound at 4 h, 10 µM in [20] is 0.558.

In data set [1], `CCC#CC[C@H](C)[C@H](O)/C=C/[C@H]1CC(F)(F)C(=O)N1CCCCCCC(=O)O` returned a pH-dependent lipophilicity (logD) at 1 h, 100 µM of 0.11. Also, the recovery at 2 h, 5 µM in data set [2] is 93%. The “inhibition (INH)” value in data set [3] and in data set [5] was “Not Active” throughout. The molecule further came in with a half-life at 1 µM in data set [4] greater than 2 h. Moreover, the negative-log Ki (pKi) in [6] was 9.42. Moreover, the Activity result is “Non-Toxic” in data set [7]; less than 50% in [8]; “Non-Toxic” in [9]; “Non-Toxic” in data set [11]; “Non-Toxic” in data set [12]; “Non-Toxic” in [14]. The Activity entry in data set [15], in data set [18] and in data set [19] was “Non-Toxic” each time. The negative logarithm of the EC50 (pEC50) was 10.06 in [10], 5.13 in data set [16] and 8.58 in data set [17]. In addition, the CLH in data set [13] was less than 8.2 µL/min/10^6 cells. In addition, the fraction unbound at 4 h, 10 µM in data set [20] is 0.416.
